In patent US6528041B2, “Process for the preparation of 1-Propyl-2, 4, 5-trimethoxybenzene from toxic β-asarone of acorus calamus or from crude calamus oil containing β-asarone” (Council of Scientific and Industrial Research, priority 2000, dated 2003):

Legend:
albino mice = assay: acute toxicity test for maximum tolerance dose (MTD) as a single dose; type: in vivo; conditions: for maximum tolerant doses (MTD): albino mice (25±2 g), intraperitoneal single dose, observed for 24 hr
Source text: There has been a lot of research on the effect of the substituents and functional groups which make a substance toxic or eliminate the toxicity. Any chemical substance that is electrophilic or metabolized to electrophilic species are often quite toxic, because electrophilic substances can react covalently with nucleophilic substituents of cellular macromolecules such as DNA, RNA, enzymes and proteins. These irreversible covalent interactions with important cellular macromolecules interfere with the macromolecule's function and can lead to a variety of toxic effects including cancer, hepatotoxicity, reproductive toxicity and developmental toxicity. It has been realised that the side chain of β-asarone contains carbon-carbon double bond, which can be metabolized to epoxide. The epoxide so formed is highly electrophilic and is capable of interacting with biological tissues, and could therefore, be the reason for the toxicity of β-asarone. In view of the above fact, it was possible to reduce the toxicity of β-asarone by hydrogenating the side olefinic bond into 1-propyl-2,4,5-trimethoxybenzene having a single bond as a side chain. The toxicity of the reduced calamus oil as well as of 1-Propyl-2,4,5-trimethoxy-benzene was tested. Toxicity test was performed on albino mice (body weight 25±2 g). […] Where the initial pilot dose was lethal, the sample was diluted. This was the acute toxicity test for maximum tolerance dose (MTD) as a single dose. […] It must be noted that further reduction in toxicity is possible by further dilution as the odor intensity of 1-Propyl-2,4,5-trimethoxybenzene and reduced calamus oil is substantially stronger than both β-asarone and calamus oil.

[1] = system: [3H] raclopride binding sites; conditions: in vitro; cited from earlier work
[2] = system: [3H] spiperone binding sites; conditions: in vitro; cited from earlier work
rats = conditions: cited from earlier work
human lymphocytes = human lymphocytes in-vitro after metabolic activation; cited from earlier work
animals = conditions: cited from earlier work

CCCc1cc(OC)c(OC)cc1OC [1-Propyl-2,4,5-trimethoxybenzene]
toxicity relative to the unreduced starting material (times less toxic) (albino mice; 1-Propyl-2,4,5-trimethoxybenzene vs β-asarone, reduced calamus oil vs calamus oil, from MTD in albino mice): nearly five times and five | maximum tolerant doses (MTD) (albino mice): 0.56 ml/kg b.w.

CCCc1cc(OC)c(OC)c(C(=O)NCC2CCCN2CC)c1O (stereo not drawn) [salicylamide derivative, 5,6-dimethoxy-N[(1-ethyl-2-pyrrolidinyl)methyl]-3-propylsalicylamide]
affinity for [3H] raclopride binding sites [1]: high and stereoselective affinity | affinity for [3H] spiperone binding sites [2]: high and stereoselective affinity

C/C=C/c1cc(OC)c(OC)cc1OC [α-Asarone]
lethality (rats): fatal

C/C=C\c1cc(OC)c(OC)cc1OC [β-asarone, cis-2,4,5-trimethoxy-1-propenylbenzene]
chromosome damaging effect (human lymphocytes): chromosome damaging effect | maximum tolerant doses (MTD) (albino mice): 0.12 ml/kg b.w. | tumour induction (animals; after oral administration): induce tumours in the duodenal region | carcinogenicity (animals; animals, higher percentage of β-asarone): carcinogenic
